This is an account of results in patent US20230219912A1, “HALOGENATED BENZOTHIADIAZINES FOR THE TREATMENT OF CANCER” (BOARD OF REGENTS OF THE UNIVERSITY OF NEBRASKA, priority 2020, published 2023).

In general, IC50 refers to the concentration needed to halve the response being measured.

Assay [1] has as its system phosphorylated vascular endothelial growth factor receptor-2 (VEGFR2). Briefly: Western blot of pVEGFR2 in VEGF-treated HUVEC cells. Type of assay: cell-based, human. The settings on record: 20 μM, VEGF 10 ng/mL, 5 min. As to the method: Cells were treated with test compounds (20 μM) along with VEGF (10 ng/mL) for 5 min. The DMSO was used as a negative control, whereas DMSO+VEGF was used as a positive control. Cells were lysed using RIPA buffer (10 mmol/L Tris-HCl, 1 mmol/L EDTA, 0.5 mmol/L EGTA, 1% Triton X-100, 0.1% sodium deoxycholate, 0.1% SDS and 140 mmol/L NaCl), supplemented with protease and phosphatase inhibitors (Halt Protease and Phosphatase Inhibitor). Cell lysates were centrifuged, and the supernatants were mixed with appropriate amount of 5×SDS loading buffer. Proteins were resolved on polyacrylamide gel and transferred onto nitrocellulose/PVDF membrane, blocked for 1 hour with 10% milk block prepared in 0.1% Tween 20 in 1×PBS (PBST), and treated with pVEGFR2 primary antibody at 4° C. overnight. The membrane was washed thrice with PBST, 5 minutes each, and treated with secondary antibody for 1 hour. The membrane was further washed three times, 5 minutes each, with PBST and developed using chemiluminescence, and the bands were analyzed using densitometry.
Background: Immunoblotting shows a protein as a band on a membrane.

In assay [2] the test system is MCF-7 breast cancer cells. The settings on record: cited from earlier work.
In assay [3] the test system is 22Rv1 prostate cancer cells. The assay can be described thus: MTS cytotoxicity assay in 22Rv1 prostate cancer cells. The settings on record: for effect on cell viability of prostate cancer cells: 100 μM up to 72 hours. Put shortly:
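Cells seeded at 1×10^5 per well and dosed after 24 h at the indicated concentrations (final DMSO <1%), then incubated 48-72 hours at 37° C, 5% CO2. MTS added for 2-4 hr; absorbance at 490 nm, viability expressed as percentage of controls.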

The next assay deals with MDA-MB-468 TNBC cells. Particulars: cited from earlier work.

Each structure is given as a SMILES string.

In the case of `CC1=Nc2ccc(Cl)cc2S(=O)(=O)N1` [Diazoxide, 7-chloro-3-methyl-2H-1,2,4-benzothiadiazine 1,1-dioxide, reference compound], in assay [1], the “attenuation of pVEGFR2 expression” value was “good activity to suppress pVEGFR2”. In addition, the IC50 was 130 µM in assay [2] and 0.87 µM in the assay on MDA-MB-468 TNBC cells. For the same compound, the “effect on cell viability of prostate cancer cells” value in assay [3] is on record as “no effect to reduce cell viability”; in assay [3] (listed as 9), “no effect on cell viability”. Moreover, the cytotoxicity at 100 µM in assay [3] (Homo sapiens, 22Rv1, 48 h, read-out: reduction of 22Rv1 cell viability) was 12%.
